For one compound, Activity results are on record in ChEMBL document CHEMBL4680105, “Discovery of Benzenesulfonamide Derivatives as Carbonic Anhydrase Inhibitors with Effective Anticonvulsant Action: Design, Synthesis, and Pharmacological Evaluation” (J Med Chem, 2018).

The subject of data set [1] is Mus musculus. In words: Anticonvulsant activity in Swiss Albino mouse assessed as protection against seizure at 30 mg/kg, ip measured after 0.5 hrs by sc-PTZ seizure test relative to control. Type of data set: functional.
Data set [2] has as its system Mus musculus. Kind of data set: Anticonvulsant activity in Swiss Albino mouse model of maximal electroshock-induced seizure assessed as protection against seizure by measuring suppression of hind limb extension at 30 mg/kg, ip pretreated for 30 mins before seizure stimulation and measured after 2 hrs by MES test relative to control. Type of data set: functional. As to conditions: time 2.5 hrs.

Data set [3] has as its system Mus musculus. In words: Anticonvulsant activity in Swiss Albino mouse model of maximal electroshock-induced seizure assessed as protection against seizure by measuring suppression of hind limb extension at 30 mg/kg, ip pretreated for 30 mins before seizure stimulation and measured after 4 hrs by MES test relative to control. Type of data set: functional. As to conditions: time 4.5 hrs.

Data set [4] in a line: Sub-acute toxicity in Wistar rat at 100 mg/kg, po for 14 days. The data set is classed as organism-based. The note with it: in vivo, 336 h, time 14 day.
Data set [5] in a line: Sub-acute toxicity in Wistar rat assessed as mortality level at 100 mg/kg, po for 14 days. As to conditions: in vivo, 336 h, time 14 day. The data set is classed as organism-based.
Data set [6] is described as follows: Hematological toxicity in Wistar rat assessed as monocytes level at 100 mg/kg, po for 14 days (reference value: 2.5 +/- 1.5%). The data set is classed as organism-based. As to conditions: in vivo, 336 h, time 14 day.
Data set [7] in a line: Hepatotoxicity in Wistar rat assessed as SGPT level at 100 mg/kg, po for 14 days (reference value: 59.2 +/- 12.5 U/L) by liver function test. The data set is classed as toxicity, organism-based. As to conditions: in vivo, 336 h, time 14 day.
A short description of data set [8]: Hepatotoxicity in Wistar rat assessed as alkaline phosphatase level at 100 mg/kg, po for 14 days (reference value: 114.2 +/- 8.4 U/L) by liver function test. The data set is classed as toxicity, organism-based. As to conditions: in vivo, 336 h, time 14 day.
Data set [9] in a line: Renal toxicity in Wistar rat assessed as blood urea level at 100 mg/kg, po for 14 days (Rvb =34.7 +/- 9.9 mg/dL) by kidney function test. The note with it: in vivo, 336 h, time 14 day. The data set is classed as organism-based.
Data set [10] is described as follows: Renal toxicity in Wistar rat assessed as uric acid level at 100 mg/kg, po for 14 days (reference value: 4.33 +/- 2.5 mg/dL) by kidney function test. Type of data set: organism-based. As to conditions: in vivo, 336 h, time 14 day.
A short description of data set [11]: Renal toxicity in Wistar rat assessed as Cl- level at 100 mg/kg, po for 14 days (reference value: 105.5 +/- 6.5 mequiv/L) by kidney function test. The data set is classed as organism-based. As to conditions: in vivo, 336 h, time 14 day.

Molecules are shown by their SMILES.

Consider `NS(=O)(=O)c1ccc(CNC(=O)CCN2CCN(Cc3ccc4c(c3)OCO4)CC2)cc1`, for which the Activity in data set [1] is 83%; in [2] it was 60%; in data set [3], 70%; in data set [4], “Non-Toxic”; in data set [5], “Non-Toxic”; in data set [6] it was 2.3%. Moreover, the Activity in data set [7] stood at 52.9 U/L; in [8] it was 113.4 U/L; in data set [9], 39.8 mg/dL; in [10] it was 2.73 mg/dL; in [11], 104.3 mEq/L.
